Measurements: patent US20220144839A1, “INDOLE AHR INHIBITORS AND USES THEREOF” (Ikena Oncology, Inc., priority 2018, published 2022)

Target: T1, AHR (UniProt P35869)
T1 sequence (P35869 1-848): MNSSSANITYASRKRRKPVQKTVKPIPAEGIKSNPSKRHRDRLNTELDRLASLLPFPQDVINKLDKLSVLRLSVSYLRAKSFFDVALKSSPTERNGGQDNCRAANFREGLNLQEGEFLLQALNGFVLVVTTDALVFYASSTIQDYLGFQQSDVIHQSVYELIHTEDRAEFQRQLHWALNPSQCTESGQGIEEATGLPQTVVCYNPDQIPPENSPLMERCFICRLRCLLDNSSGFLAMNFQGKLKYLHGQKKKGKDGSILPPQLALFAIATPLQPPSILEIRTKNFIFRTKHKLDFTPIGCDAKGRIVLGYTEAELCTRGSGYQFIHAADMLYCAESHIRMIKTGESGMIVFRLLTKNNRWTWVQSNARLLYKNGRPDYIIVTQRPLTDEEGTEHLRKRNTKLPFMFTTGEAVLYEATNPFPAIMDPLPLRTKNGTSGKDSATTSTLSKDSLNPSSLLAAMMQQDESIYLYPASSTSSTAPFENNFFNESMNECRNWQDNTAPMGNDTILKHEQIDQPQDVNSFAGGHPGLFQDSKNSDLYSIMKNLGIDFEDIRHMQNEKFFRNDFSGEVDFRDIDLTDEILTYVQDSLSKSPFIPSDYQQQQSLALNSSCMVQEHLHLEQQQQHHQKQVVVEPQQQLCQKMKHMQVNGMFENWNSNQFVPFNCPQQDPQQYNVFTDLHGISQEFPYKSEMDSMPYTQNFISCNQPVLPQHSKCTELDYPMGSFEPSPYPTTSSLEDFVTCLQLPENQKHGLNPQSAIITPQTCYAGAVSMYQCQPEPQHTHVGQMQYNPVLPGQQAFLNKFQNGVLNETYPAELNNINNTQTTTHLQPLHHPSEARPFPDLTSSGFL
Test: DRE-Luciferase Reporter Assay (Alternate Method), Example 1B
Type: cell-based
Details: concentration which inhibits half of the luciferase activity induced by AHR activating ligand; DRE-luciferase reporter cell line
Experimental: AHR binds to Dioxin Responsive Elements (DRE) upstream of genes that it activates. One measure of AHR activity is activation of a reporter gene, such as luciferase, downstream of one or multiple DRE elements. Luciferase activity will reflect activation and inhibition of AHR in the cells expressing his reporter.
Murine Hepa1-6 or Hepa-1c1c7 or other murine cell line with a DRE-luciferase reporter either stably or transiently transfected were plated in media in plates (96-well, 384-well or other plates) and incubated overnight at 37° C. in a C02 incubator or compound and agonist were added at the time of plating. Likewise, human HepG2 or other human cell line with a DRE-luciferase reporter either stably or transiently transfected were plated in media in plates (96-well, 384-well or other plates) and incubated overnight at 37° C. in a C02 incubator or compound and agonist were added at the time of plating.
At the time that cells are plated or following incubation overnight, an AHR activating ligand, such as TCDD, kynurenine, ITE (2-(1H-indole-3-ylcarbonyl)-4-thiazolecarboxylic methyl ester), VAF347, BNF (beta-naphthoflavone), FICZ (6-formylindolo(3,2-b) carbazole or other AHR ligands, was added with or without AHR antagonist.
Cells were incubated for 4, 15 or 24 hours or another time point and then lysed for determination of luciferase activity as a read-out of the AHR activation or inhibition. Luciferase was measured with a commercial kit such as the Promega Luciferase kit or any kit or reagents that provide the luciferin substrate for measuring luciferase activity. The level of luciferase with only activating ligand added was the maximum signal while the luciferase with no ligand was the minimum signal. IC50 values were determined as the concentration which inhibits half of the luciferase activity.

IC50	SMILES
1000 to 1500 nM	C[C@H](NCC1CC1)c1cnn2c(N[C@@H]3CCc4[nH]c5ccccc5c4C3)nc(-c3cncc(F)c3)nc12 [Compound I-20a, (3R)—N-[8-[(1S)-1-(Cyclopropylmethylamino)ethyl]-2-(5-fluoro-3-pyridyl)pyrazolo[1,5-a][1,3,5]triazin-4-yl]-2,3,4,9-tetrahydro-1H-carbazol-3-amine]
< 500 nM	C[C@@H](NCC1CC1)c1cnn2c(N[C@@H]3CCc4[nH]c5ccccc5c4C3)nc(-c3cncc(F)c3)nc12 [Compound I-20b, (3R)—N-[8-[(1R)-1-(Cyclopropylmethylamino)ethyl]-2-(5-fluoro-3-pyridyl)pyrazolo[1,5-a][1,3,5]triazin-4-yl]-2,3,4,9-tetrahydro-1H-carbazol-3-amine]
> 1500 nM	CC(C)c1cnn2c(N[C@@H]3CCc4[nH]c5ccccc5c4C3)nc(-n3cccn3)nc12 [Compound I-21, (3R)—N-(8-isopropyl-2-pyrazol-1-yl-pyrazolo[1,5-a][1,3,5]triazin-4-yl)-2,3,4,9-tetrahydro-1H-carbazol-3-amine]
< 500 nM	Cc1ccnc2c(N[C@@H]3CCc4[nH]c5ccccc5c4C3)nc(-c3cncc(F)c3)nc12 [Compound I-22, (3R)—N-[2-(5-fluoro-3-pyridyl)-8-methyl-pyrido[3,2-d]pyrimidin-4-yl]-2,3,4,9-tetrahydro-1H-carbazol-3-amine]
< 500 nM	COc1ccnc2c(N[C@@H]3CCc4[nH]c5ccccc5c4C3)nc(-c3cncc(F)c3)nc12 [Compound I-23, (3R)—N-[2-(5-fluoro-3-pyridyl)-8-methoxy-pyrido[3,2-d]pyrimidin-4-yl]-2,3,4,9-tetrahydro-1H-carbazol-3-amine]
> 1500 nM	CC(C)c1cnn2c(N[C@@H]3CCc4[nH]c5c(O)cccc5c4C3)nc(-c3cncc(F)c3)nc12 [Compound I-24a, (6R)-6-[[2-(5-fluoro-3-pyridyl)-8-isopropyl-pyrazolo[1,5-a][1,3,5]triazin-4-yl]amino]-6,7,8,9-tetrahydro-5H-carbazol-1-ol]
> 1500 nM	CC(C)c1cnn2c(N[C@H]3CCc4[nH]c5c(O)cccc5c4C3)nc(-c3cncc(F)c3)nc12 [Compound I-24b, (6S)-6-[[2-(5-fluoro-3-pyridyl)-8-isopropyl-pyrazolo[1,5-a][1,3,5]triazin-4-yl]amino]-6,7,8,9-tetrahydro-5H-carbazol-1-ol]
< 500 nM	C[C@@H](CO)c1cnn2c(N[C@@H]3CCc4[nH]c5ccccc5c4C3)nc(-c3cncc(F)c3)nc12 [Compound I-25a, (2R)-2-[2-(5-Fluoro-3-pyridyl)-4-[[(3R)-2,3,4,9-tetrahydro-1H-carbazol-3-yl]amino]pyrazolo[1,5-a][1,3,5]triazin-8-yl]propan-1-ol]
< 500 nM	C[C@H](CO)c1cnn2c(N[C@@H]3CCc4[nH]c5ccccc5c4C3)nc(-c3cncc(F)c3)nc12 [Compound I-25b, (2S)-2-[2-(5-Fluoro-3-pyridyl)-4-[[(3R)-2,3,4,9-tetrahydro-1H-carbazol-3-yl]amino]pyrazolo[1,5-a][1,3,5]triazin-8-yl]propan-1-ol]
> 1500 nM	Fc1cc(-c2nc(N[C@@H]3CCc4[nH]c5ccccc5c4C3)n3nccc3n2)cnc1[C@H]1CCCN1 [Compound I-26b, (3R)—N-[2-[5-Fluoro-6-[(2R)-pyrrolidin-2-yl]-3-pyridyl]pyrazolo[1,5-a][1,3,5]triazin-4-yl]-2,3,4,9-tetrahydro-1H-carbazol-3-amine]
> 1500 nM	CC(C)c1cnn2c(N[C@@H]3CCc4[nH]c5cc(O)ccc5c4C3)nc(-c3cncc(F)c3)nc12 [Compound I-27a, (6R)-6-[[2-(5-Fluoro-3-pyridyl)-8-isopropyl-pyrazolo[1,5-a][1,3,5]triazin-4-yl]amino]-6,7,8,9-tetrahydro-5H-carbazol-2-ol]
> 1500 nM	CC(C)c1cnn2c(N[C@H]3CCc4[nH]c5cc(O)ccc5c4C3)nc(-c3cncc(F)c3)nc12 [Compound I-27b, (6S)-6-[[2-(5-Fluoro-3-pyridyl)-8-isopropyl-pyrazolo[1,5-a][1,3,5]triazin-4-yl]amino]-6,7,8,9-tetrahydro-5H-carbazol-2-ol]
